Consider five cell lines from the supplement of paper PMC10307832.

What all share (assay): relative viability (nuclei count vs DMSO), 5 days (fraction); higher = more cells survive
Compound in assay [1]: C#Cc1cccc(Nc2ncnc3cc(OC)c(OCCCCCCC(=O)NO)cc23)c1 [CUDC-101] + O=C(CCCCCCC(=O)Nc1ccccc1)NO [Vorinostat] (partner 1 µM)
Put shortly: (§1)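 Nuclei were stained with Hoechst during a one-step fixation (final 0.05% Triton X-100, 1% formaldehyde, 1 ug/ml Hoechst) carried out 5 days after dosing, then counted on 4× images. The cells, lung cancer lines in 1536-well plates, had been dosed by pin tool the day after seeding with one drug alone or a fixed anchor-drug dose plus five library-drug doses (not always all listed) in √10 steps. Relative viability is the nuclei count in treated wells divided by that in vehicle wells, and each value is the median of duplicate plates.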

Compound in assay [2]: COc1cc(N2CCC(N3CCN(C)CC3)CC2)ccc1Nc1ncc(Cl)c(Nc2ccccc2S(=O)(=O)C(C)C)n1 [NVP-TAE684] + C[C@]1(O)C[C@@H](c2nc(-c3ccc4ccc(-c5ccccc5)nc4c3)c3c(N)nccn32)C1 [Linsitinib] (partner 1 µM)
Put shortly:
as §1

Compound in assay [3]: COc1cc2/c(=N/c3ccc(Br)cc3F)nc[nH]c2cc1OCC1CCN(C)CC1 [Vandetanib] + Cc1cc(Nc2cc(N3CCN(C)CC3)nc(Sc3ccc(NC(=O)C4CC4)cc3)n2)n[nH]1 [Tozasertib] (partner 0.1 µM)
Summed up: as §1

Compound in assay [4]: C#Cc1cccc(Nc2ncnc3cc(OC)c(OCCCCCCC(=O)NO)cc23)c1 [CUDC-101] + O=C(c1cc(Cc2n[nH]c(=O)c3ccccc23)ccc1F)N1CCN(C(=O)C2CC2)CC1 [Olaparib] (partner 8 µM)
Put shortly:
as §1

On to PC-14, for which the relative viability was determined as 0.806 in assay [1] (first compound 0.01 µM); 0.572 in assay [1] (first compound 0.03162 µM); 0.137 in assay [1] (first compound 0.1 µM); 0.148 in assay [1] (first compound 0.3162 µM); 0.0543 in assay [1] (first compound 1 µM); 0.934 in assay [2] (first compound 0.2 µM). Further, the relative viability in assay [2] (first compound 0.6325 µM) turned out to be 1.1; in assay [2] (first compound 2 µM), 0.851; in assay [3] (first compound 0.02 µM), 0.598; in assay [3] (first compound 0.06325 µM), 0.542; in assay [3] (first compound 0.2 µM) it was 0.554; in assay [3] (first compound 0.6325 µM) it was 0.478. Also, the relative viability in assay [3] (first compound 2 µM) was found to be 0.191; in assay [4] (first compound 0.01 µM), 0.273; in assay [4] (first compound 0.03162 µM), 0.317; in assay [4] (first compound 0.1 µM) it was 0.295; in assay [4] (first compound 0.3162 µM), 0.165; in assay [4] (first compound 1 µM), 0.0702.

As for RERF-LC-KJ, the relative viability amounted to 0.732 in assay [1] (first compound 0.01 µM); 0.783 in assay [1] (first compound 0.03162 µM); 0.612 in assay [1] (first compound 0.1 µM); 0.659 in assay [1] (first compound 0.3162 µM); 0.439 in assay [1] (first compound 1 µM); 0.921 in assay [2] (first compound 0.2 µM). In addition, the relative viability in assay [2] (first compound 0.6325 µM) was 1.01; in assay [3] (first compound 0.02 µM), 0.549; in assay [3] (first compound 0.06325 µM), 0.515; in assay [3] (first compound 0.2 µM), 0.491; in assay [3] (first compound 0.6325 µM) it was 0.439; in assay [3] (first compound 2 µM), 0.477. Besides, the relative viability came out at 0.939 in assay [4] (first compound 0.01 µM); 0.917 in assay [4] (first compound 0.03162 µM); 0.92 in assay [4] (first compound 0.1 µM); 0.818 in assay [4] (first compound 0.3162 µM); 0.699 in assay [4] (first compound 1 µM).

For the cell line SK-LU-1, the relative viability in assay [1] (first compound 0.01 µM) turned out to be 0.784; in assay [1] (first compound 0.03162 µM), 0.884; in assay [1] (first compound 0.1 µM), 0.843; in assay [1] (first compound 0.3162 µM), 0.829; in assay [1] (first compound 1 µM), 0.567; in assay [2] (first compound 0.2 µM) it was 1.19. For the same cell line, the relative viability in assay [2] (first compound 0.6325 µM) was determined as 1.2; in assay [2] (first compound 2 µM) it was 0.693; in assay [3] (first compound 0.02 µM) it was 0.36; in assay [3] (first compound 0.06325 µM), 0.361; in assay [3] (first compound 0.2 µM), 0.133; in assay [3] (first compound 0.6325 µM), 0.292. The relative viability was found to be 0.317 in assay [3] (first compound 2 µM); 0.473 in assay [4] (first compound 0.01 µM); 0.503 in assay [4] (first compound 0.03162 µM); 0.421 in assay [4] (first compound 0.1 µM); 0.487 in assay [4] (first compound 0.3162 µM); 0.434 in assay [4] (first compound 1 µM).

SK-MES-1: the relative viability in assay [1] (first compound 0.01 µM) stood at 1.04; in assay [1] (first compound 0.03162 µM) it was 1.04; in assay [1] (first compound 0.1 µM), 1.1; in assay [1] (first compound 0.3162 µM), 1.12; in assay [1] (first compound 1 µM) it was 0.915; in assay [2] (first compound 0.2 µM) it was 0.985. Also, the relative viability in assay [2] (first compound 0.6325 µM) is 1.05; in assay [2] (first compound 2 µM), 0.837; in assay [3] (first compound 0.02 µM), 0.93; in assay [3] (first compound 0.06325 µM) it was 0.84; in assay [3] (first compound 0.2 µM), 1.01; in assay [3] (first compound 0.6325 µM), 1.04. The relative viability is 0.847 in assay [3] (first compound 2 µM); 0.697 in assay [4] (first compound 0.01 µM); 0.775 in assay [4] (first compound 0.03162 µM); 0.727 in assay [4] (first compound 0.1 µM); 0.658 in assay [4] (first compound 0.3162 µM); 0.512 in assay [4] (first compound 1 µM).

Consider SW 1573, for which the relative viability in assay [1] (first compound 0.01 µM) stood at 0.979; in assay [1] (first compound 0.03162 µM), 0.689; in assay [1] (first compound 0.1 µM), 0.675; in assay [1] (first compound 0.3162 µM), 0.773; in assay [1] (first compound 1 µM), 0.468; in assay [2] (first compound 0.2 µM) it was 0.907. The relative viability came to 0.692 in assay [2] (first compound 0.6325 µM); 0.795 in assay [2] (first compound 2 µM); 0.153 in assay [3] (first compound 0.02 µM); 0.169 in assay [3] (first compound 0.06325 µM); 0.19 in assay [3] (first compound 0.2 µM); 0.174 in assay [3] (first compound 0.6325 µM). Besides, the relative viability in assay [3] (first compound 2 µM) was determined as 0.195; in assay [4] (first compound 0.01 µM), 0.634; in assay [4] (first compound 0.03162 µM), 0.477; in assay [4] (first compound 0.1 µM) it was 0.587; in assay [4] (first compound 0.3162 µM), 0.603; in assay [4] (first compound 1 µM) it was 0.349.
